Here are results for five molecules from patent US9220775B2, “Binding molecules specific for HER3 and uses thereof” (Medlmmune LLC, priority 2011, dated 2015).

Test [1] relates to MDA-MB-361 xenograft tumors. The test is described as follows: Orthotopic human MDA-MB-361 breast cancer xenograft model. The settings on record: 2C2-YTE 30 mg/kg, trastuzumab and rhuMAb 2C4 10 mg/kg, lapatinib 100 mg/kg twice daily. In kind it is in vivo, mouse. As to the method: (§1) Orthotopic xenografts were established by injecting 5×10^6 cells per mouse (suspended in 50% matrigel) into the mammary fat pad on the right flank of 4 to 6-week-old athymic nu/nu mice. Estrogen pellets (0.36 mg) were placed under the skin of the left flank 1-2 days before cell injection. […] Lapatinib was administered by oral gavaging at 100 mg per kilogram body weight. Caliper measurements were used to calculate tumor volumes using the formula: tumor volume=π÷6(length×width×width) • for tumors grown in mice.
(In general: Xenograft models place foreign cells or tissue in a host animal.)

For another test, the system named is BT-474 xenograft tumors. The test is described as follows: Orthotopic human BT-474 breast cancer xenograft model. In kind it is in vivo, mouse. The settings on record: antibodies 30 mg/kg, lapatinib 100 mg/kg oral. As to the method:
Orthotopic xenografts were established by injecting 1×10^7 cells per mouse (suspended in 50% matrigel) into the mammary fat pad on the right flank of 4 to 6-week-old athymic nu/nu mice. Estrogen pellets (0.36 mg) were placed under the skin of the left flank 1-2 days before cell injection. […] Lapatinib was administered by oral gavaging at 100 mg per kilogram body weight. Caliper measurements were used to calculate tumor volumes using the formula: tumor volume=π÷6(length×width×width) • for tumors grown in mice.

Another test relates to SkBR3 cells. The test is described as follows: CDC assay with human serum as source of complement. In kind it is cell-based. The conditions noted are these: any concentration, data not shown. From the text:
ADCC is one recognized way through which a monoclonal antibody can confer its anti-tumor efficacy in vivo.

A further test has as its system Daudi cells. Briefly: CDC assay against Daudi cells. It counts as cell-based. The settings on record: CD20-expressing cells, data not shown. The procedure: ADCC is one recognized way through which a monoclonal antibody can confer its anti-tumor efficacy in vivo. […] 2C2-YTE was tested in CDC assays using human serum as a source of complement.
The subject of test [2] is HER3, pHER3 and pAKT in SW620, SW480, Colo205, LOVO, HCT15 and Caco-2 cells. The test is described as follows: HRG ligand-dependent signaling in CRC tumor cell lines (Western blot). It counts as cell-based, human. The settings on record: antibodies 10 μg/mL, gefitinib 5 μM, HRG 50 ng/mL. The procedure:
In the presence of the HER3 ligand heregulin (HRG), HER3 heterodimerizes with EGFR or HER2, which leads to phosphorylation of HER3 and transmission of an oncogenic signal via phosphoinositide 3 kinase (PI3K) and protein kinase B (PKB), also known as AKT. A collection of CRC models were characterized to determine which receptor tyrosine kinase, EGFR or HER2, is the major driver of signaling through HER3. […] Briefly, cells were seeded into 24-well plates at a density of 1.5×10^5 cells per well. […] After 5-6 hours of incubation at 37° C., HRG was added at 50 ng/mL into one set of cells for 15 minutes at 37° C. All cells were then washed with cold PBS and lysed by the addition of 60 μL of 2×SDS (sodium dodecyl sulfate) sample buffer (Invitrogen). Lysates were transferred to 1.5 mL tubes and boiled for 5 minutes followed by chilling on ice for 2 minutes. Equal volumes (20 μL) of protein samples were resolved in NuPAGE Novex Bis-Tris gels (Invitrogen) before transfer to polyvinylidene fluoride (PVDF) membranes (Invitrogen). […] After washing, protein bands were detected on X-ray film by using SuperSignal West Pico Chemiluminescent Substrate (Pierce/Thermo Scientific).
On the technique in general: Immunoblotting shows a protein as a band on a membrane.

The next test relates to MCF-7 xenograft tumors. The test is described as follows: Orthotopic human MCF-7 breast cancer xenograft model. It counts as in vivo, mouse. The conditions noted are these: antibodies 10 mg/kg, paclitaxel 10 mg/kg i.v. every second day for ten days. The procedure: as §1, with “Human MCF-7 breast cancer cells were maintained at 37° C. in a 5% CO2 incubator in Optimem medium containing glutamax, 2.4/L sodium bicarbonate, Hepes and 5% fetal bovine serum. Orthotopic” for “Orthotopic”, “Paclitaxel” for “Lapatinib”, “intravenously” for “by oral gavaging”, “10” for “100”

In the case of `CS(=O)(=O)CCNCc1ccc(-c2ccc3ncnc(Nc4ccc(OCc5cccc(F)c5)c(Cl)c4)c3c2)o1` [lapatinib], the Anti-tumor efficacy result in test [1] is on record as “showed anti-tumor efficacy”; in the test on BT-474 xenograft tumors, “tumor stasis”.
For the molecule rituximab [reference compound], the CDC activity entry is “None of the antibodies including 2C2-YTE showed any detectable CDC activity” in the test on SkBR3 cells and “substantial cell-kill activity” in the test with Daudi cells.
As for pertuzumab [rhuMAb 2C4], the Anti-tumor efficacy result in test [1] was “showed anti-tumor efficacy”. Besides, the “HRG ligand-dependent signaling (HER3, pHER3, pAKT)” value in test [2] is “inhibit HRG ligand-dependent signaling”.
In the case of `COc1cc2ncnc(Nc3ccc(F)c(Cl)c3)c2cc1OCCCN1CCOCC1` [gefitinib], the “HRG ligand-dependent signaling (HER3, pHER3, pAKT)” value in test [2] is on record as “no effect”.
As to `CC(=O)O[C@H]1C(=O)[C@@]2(C)[C@H]([C@H](OC(=O)c3ccccc3)[C@]3(O)C[C@H](OC(=O)[C@H](O)[C@@H](NC(=O)c4ccccc4)c4ccccc4)C(C)=C1C3(C)C)[C@]1(OC(C)=O)CO[C@@H]1C[C@@H]2O` [paclitaxel], in the test with MCF-7 xenograft tumors, the Anti-tumor efficacy entry was “clear anti-tumor efficacy”.
